ChEMBL document CHEMBL3813694, “Combined dual effect of modulation of human neutrophils' oxidative burst and inhibition of colon cancer cells proliferation by hydroxycinnamic acid derivatives” (Bioorg Med Chem, 2016)
Active and inactive are the calls of the source. The rule behind the calls is not given here.

What was measured:
[1] = Cytotoxicity against human neutrophils at 200 uM after 1 hr by trypan blue exclusion assay; type: cell-based; settings: neutrophil
Neutrophil [2] = test: Inhibition of phorbol myristate acetate-induced human neutrophils oxidative burst assessed as reduction in luminol oxidation preincubated for 5 mins followed by PMA addition measured after 15 mins by chemiluminescence assay; type: functional, cell-based
C2BBe1 [3] = test: Cytotoxicity against human C2BBe1 cells assessed as reduction in cell proliferation after 24 hrs by sulforhodamine B assay; type: functional, cell-based; settings: C2BBe1, 24 h
C2BBe1 [4] = test: Cytotoxicity against human C2BBe1 cells assessed as reduction in cell proliferation after 48 hrs by sulforhodamine B assay; type: functional, cell-based; settings: C2BBe1, 48 h
C2BBe1 [5] = test: Cytotoxicity against human C2BBe1 cells assessed as reduction in cell proliferation after 72 hrs by sulforhodamine B assay; type: functional, cell-based; settings: C2BBe1, 72 h
C2BBe1 [6] = test: Cytotoxicity against human C2BBe1 cells assessed as reduction in cell proliferation after 96 hrs by sulforhodamine B assay; type: functional, cell-based; settings: C2BBe1, 96 h
WiDr [7] = test: Cytotoxicity against human WiDr cells assessed as reduction in cell proliferation after 24 hrs by sulforhodamine B assay; type: functional, cell-based
WiDr [8] = test: Cytotoxicity against human WiDr cells assessed as reduction in cell proliferation after 48 hrs by sulforhodamine B assay; type: functional, cell-based
WiDr [9] = test: Cytotoxicity against human WiDr cells assessed as reduction in cell proliferation after 72 hrs by sulforhodamine B assay; type: functional, cell-based
WiDr [10] = test: Cytotoxicity against human WiDr cells assessed as reduction in cell proliferation after 96 hrs by sulforhodamine B assay; type: functional, cell-based
C2BBe1 [11] = test: Cytotoxicity against human C2BBe1 cells assessed as reduction in cell proliferation up to 200 uM by sulforhodamine B assay; type: functional, cell-based; settings: TDE = time-dependent effect
Neutrophil [12] = test: Inhibition of phorbol myristate acetate-induced human neutrophils oxidative burst assessed as reduction in luminol oxidation up to 200 uM preincubated for 5 mins followed by PMA addition measured after 15 mins by chemiluminescence assay; type: functional
Neutrophil [13] = test: Inhibition of phorbol myristate acetate-induced superoxide radical generation in human neutrophils at 100 uM preincubated for 5 mins followed by PMA addition by lucigenin chemiluminescence assay; type: functional
C2BBe1 [14] = test: Cell cycle arrest in human C2BBe1 cells assessed as accumulation at G2/M phase at 50 uM after 48 hrs by propidium iodide/RNase staining based flow cytometry relative to control; type: functional
WiDr [15] = test: Cell cycle arrest in human WiDr cells assessed as accumulation at S phase at 50 uM after 48 hrs by propidium iodide/RNase staining based flow cytometry relative to control; type: functional
WiDr [16] = test: Cell cycle arrest in human WiDr cells assessed as accumulation at pre-G1 phase at 50 uM after 48 hrs by propidium iodide/RNase staining based flow cytometry; type: functional
WiDr [17] = test: Cytotoxicity against human WiDr cells assessed as reduction in cell viability at 35 uM after 48 hrs by annexin V/propidium iodide dual staining based flow cytometry relative to control; type: functional
WiDr [18] = test: Cytotoxicity against human WiDr cells assessed as reduction in cell viability at 50 uM after 48 hrs by annexin V/propidium iodide dual staining based flow cytometry relative to control; type: functional
C2BBe1 [19] = test: Cytotoxicity against human C2BBe1 cells assessed as reduction in cell viability at 22 uM after 48 hrs by annexin V/propidium iodide dual staining based flow cytometry relative to control; type: functional
C2BBe1 [20] = test: Cytotoxicity against human C2BBe1 cells assessed as reduction in cell viability at 50 uM after 48 hrs by annexin V/propidium iodide dual staining based flow cytometry relative to control; type: functional
C2BBe1 [21] = test: Induction of apoptosis in human C2BBe1 cells assessed as early apoptotic cells at 50 uM after 48 hrs by annexin V/propidium iodide dual staining based flow cytometry; type: functional, cell-based
WiDr [22] = test: Induction of apoptosis in human WiDr cells assessed as decrease in mitochondrial membrane potential at 50 uM after 48 hrs by JC-1 staining based flow cytometry relative to control; type: functional
WiDr [23] = test: Induction of superoxide anion radical production in human WiDr cells after 48 hrs by dihydroethidium probe based flow cytometry; type: functional, cell-based
C2BBe1 [24] = test: Induction of superoxide anion radical production in human C2BBe1 cells after 48 hrs by dihydroethidium probe based flow cytometry; type: functional, cell-based
WiDr [25] = test: Induction of superoxide anion radical production in human WiDr cells at 50 uM after 48 hrs by dihydroethidium probe based flow cytometry relative to control; type: functional
WiDr [26] = test: Induction of hydrogen peroxide production in human WiDr cells at 35 to 50 uM after 48 hrs by DCFH2-DA probe based flow cytometry; type: functional, cell-based
C2BBe1 [27] = test: Induction of glutathione production in human C2BBe1 cells at 50 uM after 48 hrs by mercury orange dye based flow cytometry relative to control; type: functional
WiDr [28] = test: Induction of apoptosis in human WiDr cells assessed as early apoptotic cells at 35 to 50 uM after 48 hrs by annexin V/propidium iodide dual staining based flow cytometry; type: functional, cell-based

SMILES | Activity [1] | IC50 (Neutrophil [2]) | IC50 (C2BBe1 [3]) | IC50 (C2BBe1 [4]) | IC50 (C2BBe1 [5]) | IC50 (C2BBe1 [6]) | IC50 (WiDr [7]) | IC50 (WiDr [8]) | IC50 (WiDr [9]) | IC50 (WiDr [10]) | Activity (C2BBe1 [11]) | further results
O=C(O)/C=C/c1cc(O)c(O)c(O)c1 | 98% | 19 µM | 131 µM | 87.9 µM | 58.9 µM | 39.1 µM | > 200 µM | > 200 µM | 114 µM | 136 µM | tde | –
CCCCCCNC(=O)/C=C/c1cc(O)c(O)c(O)c1 | 98% | 36 µM | 115 µM | 115 µM | 99.8 µM | 50.9 µM | 71.4 µM | 82.4 µM | 37.7 µM | 31.7 µM | tde | –
O=C(O)/C=C/c1ccc(O)c(O)c1 [CAFFEIC ACID] | 98% | – | – | – | – | – | – | – | – | – | – | inhibition (INH) (Neutrophil [12]): 44%; inhibition at 100 µM (Neutrophil [13]): 84%
CCCCCCNC(=O)/C=C/c1ccc(O)c(O)c1 [CAFFEOYLHEXYLAMIDE] | 98% | 6.6 µM | 37.3 µM | 22 µM | 23.4 µM | 22.6 µM | 56.1 µM | 34.6 µM | 35.5 µM | 30.8 µM | – | Activity (C2BBe1 [14]): 8.8%; Activity (WiDr [15]): 9.3%; Activity (WiDr [16]): Active; Activity (WiDr [17]): 32.8%; Activity (WiDr [18]): 43.9%; Activity (C2BBe1 [19]): 11.4%; Activity (C2BBe1 [20]): 14.7%; Activity (C2BBe1 [21]): Active; fold change (FC) (WiDr [22]): 1.27; Activity (WiDr [23]): Dose-dependent effect; Activity (C2BBe1 [24]): Dose-dependent effect; fold change (FC) (WiDr [25]): 2.63; Activity (WiDr [26]): Active; fold change (FC) (C2BBe1 [27]): 1.47; Activity (WiDr [28]): Active
COc1cc(/C=C/C(=O)O)ccc1O [FERULATE] | 98% | 200 µM | > 200 µM | > 200 µM | > 200 µM | > 200 µM | > 200 µM | > 200 µM | > 200 µM | > 200 µM | – | –
CCCCCCNC(=O)/C=C/c1ccc(O)c(OC)c1 [FERULOYLHEXYLAMIDE] | 98% | 14 µM | 132 µM | 123 µM | 89.5 µM | 60.6 µM | 84.9 µM | 91 µM | 77.4 µM | 83.3 µM | – | –
